Results reported in paper PMC9898036, “VIP152 is a selective CDK9 inhibitor with pre-clinical in vitro and in vivo efficacy in chronic lymphocytic leukemia” (Leukemia, 2022).
Like-named read-outs stand apart in the source and are kept apart here.

Columns and labels:
Test in all cases: DiscoverX KINOMEscan kinase profiling (468 assays)
Type in all cases: binding
human kinome [1] = target: human kinome (Homo sapiens, UniProt P53355); conditions: DAPK1; 100 nM; read-out: Percent Control
Method in brief: (§1)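 VIP152 was run in DMSO, alongside a DMSO control. Readout was qPCR of DNA-tagged kinase still bound to bead-immobilized biotinylated kinase ligands after compound competition.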

human kinome [2] = target: human kinome (Homo sapiens, UniProt Q9H2X6); conditions: HIPK2; 100 nM; read-out: Percent Control
Method in brief: as §1

human kinome [3] = target: human kinome (Homo sapiens, UniProt Q00536); conditions: read-out: Percent Control
Method in brief: as §1

human kinome [4] = target: human kinome (Homo sapiens, UniProt Q86UX6); conditions: kinase YANK3 (Entrez STK32C); compound concentration 1000 nM; read-out: Percent Control
Method in brief: as §1

human kinome [5] = target: human kinome (Homo sapiens, UniProt P52564); conditions: MEK6 (Entrez MAP2K6); 100 nM; read-out: Percent Control
Method in brief: as §1

human kinome [6] = target: human kinome (Homo sapiens, UniProt Q92918); conditions: HPK1 (Entrez MAP4K1); 100 nM; read-out: Percent Control
Method in brief: as §1

human kinome [7] = target: human kinome (Homo sapiens, UniProt P27361); conditions: ERK1 (Entrez MAPK3); 100 nM; read-out: Percent Control
Method in brief: as §1

human kinome [8] = target: human kinome (Homo sapiens, UniProt P24941); conditions: CDK2; 100 nM; read-out: Percent Control
Method in brief: as §1

human kinome [9] = target: human kinome (Homo sapiens, UniProt Q8NEV4); conditions: read-out: Percent Control
Chain of human kinome (Homo sapiens, UniProt Q8NEV4) (Q8NEV4 whole entry): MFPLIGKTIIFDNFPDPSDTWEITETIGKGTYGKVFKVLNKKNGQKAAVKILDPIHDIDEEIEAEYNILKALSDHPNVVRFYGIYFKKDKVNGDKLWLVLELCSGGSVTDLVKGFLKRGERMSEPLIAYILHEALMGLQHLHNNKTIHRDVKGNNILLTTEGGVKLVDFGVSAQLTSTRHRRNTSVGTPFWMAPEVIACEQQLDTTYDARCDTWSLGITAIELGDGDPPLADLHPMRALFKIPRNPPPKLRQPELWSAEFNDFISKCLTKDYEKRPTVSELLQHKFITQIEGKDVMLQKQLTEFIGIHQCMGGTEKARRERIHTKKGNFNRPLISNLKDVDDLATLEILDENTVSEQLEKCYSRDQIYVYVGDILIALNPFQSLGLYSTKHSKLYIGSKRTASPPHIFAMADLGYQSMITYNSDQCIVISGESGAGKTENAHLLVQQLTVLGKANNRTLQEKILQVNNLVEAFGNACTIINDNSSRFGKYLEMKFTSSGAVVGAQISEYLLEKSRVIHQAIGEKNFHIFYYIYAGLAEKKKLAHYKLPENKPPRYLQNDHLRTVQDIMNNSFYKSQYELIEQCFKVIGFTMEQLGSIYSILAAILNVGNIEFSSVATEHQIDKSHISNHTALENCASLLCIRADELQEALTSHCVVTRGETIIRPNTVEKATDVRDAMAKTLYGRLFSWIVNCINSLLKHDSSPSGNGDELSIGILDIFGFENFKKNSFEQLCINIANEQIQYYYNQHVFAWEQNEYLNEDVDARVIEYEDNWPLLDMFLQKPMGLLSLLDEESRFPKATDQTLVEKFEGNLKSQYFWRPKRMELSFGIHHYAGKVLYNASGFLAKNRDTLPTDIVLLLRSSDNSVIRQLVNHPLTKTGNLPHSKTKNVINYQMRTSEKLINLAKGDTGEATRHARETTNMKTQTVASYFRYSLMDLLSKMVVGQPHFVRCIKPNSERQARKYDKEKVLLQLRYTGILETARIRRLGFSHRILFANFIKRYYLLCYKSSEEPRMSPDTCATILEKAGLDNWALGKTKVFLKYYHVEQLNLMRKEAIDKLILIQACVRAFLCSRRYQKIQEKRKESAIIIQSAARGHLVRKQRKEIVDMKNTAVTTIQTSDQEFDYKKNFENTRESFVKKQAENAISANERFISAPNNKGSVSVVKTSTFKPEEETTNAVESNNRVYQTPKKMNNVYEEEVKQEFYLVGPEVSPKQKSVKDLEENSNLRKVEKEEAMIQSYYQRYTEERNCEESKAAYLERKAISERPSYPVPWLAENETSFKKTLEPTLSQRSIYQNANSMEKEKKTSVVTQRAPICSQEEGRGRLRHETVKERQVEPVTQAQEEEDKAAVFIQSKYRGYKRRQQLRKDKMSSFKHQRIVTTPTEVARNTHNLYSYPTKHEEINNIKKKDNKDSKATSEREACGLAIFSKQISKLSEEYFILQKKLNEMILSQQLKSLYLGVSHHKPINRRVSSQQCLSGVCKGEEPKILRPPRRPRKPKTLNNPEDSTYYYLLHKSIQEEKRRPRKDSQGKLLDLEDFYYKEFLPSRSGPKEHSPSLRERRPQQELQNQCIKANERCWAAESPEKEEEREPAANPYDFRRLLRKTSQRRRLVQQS
Method in brief: as §1

human kinome [10] = target: human kinome (Homo sapiens, UniProt Q9H1R3); conditions: read-out: Percent Control
Chain of human kinome (Homo sapiens, UniProt Q9H1R3) (Q9H1R3 whole entry): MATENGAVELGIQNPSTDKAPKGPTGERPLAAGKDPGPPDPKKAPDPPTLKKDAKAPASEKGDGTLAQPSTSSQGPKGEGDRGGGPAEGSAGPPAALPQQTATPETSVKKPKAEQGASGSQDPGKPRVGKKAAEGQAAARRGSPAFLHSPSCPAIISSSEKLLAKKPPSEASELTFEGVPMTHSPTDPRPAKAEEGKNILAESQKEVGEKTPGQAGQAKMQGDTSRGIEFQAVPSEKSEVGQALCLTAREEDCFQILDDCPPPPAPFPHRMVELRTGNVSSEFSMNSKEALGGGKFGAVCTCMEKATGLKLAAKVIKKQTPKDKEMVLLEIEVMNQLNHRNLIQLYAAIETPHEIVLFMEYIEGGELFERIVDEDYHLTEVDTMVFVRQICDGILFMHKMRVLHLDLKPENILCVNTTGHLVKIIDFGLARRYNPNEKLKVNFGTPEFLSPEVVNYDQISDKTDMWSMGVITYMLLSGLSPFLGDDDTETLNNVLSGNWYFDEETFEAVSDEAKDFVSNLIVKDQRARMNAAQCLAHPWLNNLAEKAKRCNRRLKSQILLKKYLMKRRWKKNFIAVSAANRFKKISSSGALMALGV
Method in brief: as §1

human kinome [11] = target: human kinome (Homo sapiens, UniProt P30530); conditions: AXL; 100 nM; read-out: Percent Control
Method in brief: as §1

human kinome [12] = target: human kinome (Homo sapiens, UniProt P54646); conditions: AMPK-alpha2 (Entrez PRKAA2); 100 nM; read-out: Percent Control
Method in brief: as §1

human kinome [13] = target: human kinome (Homo sapiens, UniProt P10721, V559D); conditions: KIT(V559D); 100 nM; read-out: Percent Control
Method in brief: as §1

human kinome [14] = target: human kinome (Homo sapiens, UniProt O14757); conditions: CHEK1; 100 nM; read-out: Percent Control
Method in brief: as §1

human kinome [15] = target: human kinome (Homo sapiens, UniProt Q15835); conditions: GRK1; 100 nM; read-out: Percent Control
Method in brief: as §1

human kinome [16] = target: human kinome (Homo sapiens, UniProt Q9Y3S1); conditions: kinase WNK2 (Entrez WNK2); compound concentration 1000 nM; read-out: Percent Control
Method in brief: as §1

human kinome [17] = target: human kinome (Homo sapiens, UniProt Q13523); conditions: read-out: Percent Control
Method in brief: as §1

human kinome [18] = target: human kinome (Homo sapiens, UniProt Q9UIK4); conditions: DAPK2; 100 nM; read-out: Percent Control
Method in brief: as §1

human kinome [19] = target: human kinome (Homo sapiens, UniProt Q9HC98); conditions: read-out: Percent Control
Method in brief: as §1

human kinome [20] = target: human kinome (Homo sapiens, UniProt P30291); conditions: kinase WEE1 (Entrez WEE1); compound concentration 1000 nM; read-out: Percent Control
Method in brief: as §1

human kinome [21] = target: human kinome (Homo sapiens, UniProt P11362); conditions: FGFR1; 100 nM; read-out: Percent Control
Method in brief: as §1

human kinome [22] = target: human kinome (Homo sapiens, UniProt Q9NWZ3); conditions: IRAK4; 100 nM; read-out: Percent Control
Method in brief: as §1

human kinome [23] = target: human kinome (Homo sapiens, UniProt Q8N4C8); conditions: MINK (Entrez MINK1); 100 nM; read-out: Percent Control
Method in brief: as §1

human kinome [24] = target: human kinome (Homo sapiens, UniProt P23458); conditions: 100 nM, read-out: Percent Control
Chain of human kinome (Homo sapiens, UniProt P23458) (P23458 whole entry): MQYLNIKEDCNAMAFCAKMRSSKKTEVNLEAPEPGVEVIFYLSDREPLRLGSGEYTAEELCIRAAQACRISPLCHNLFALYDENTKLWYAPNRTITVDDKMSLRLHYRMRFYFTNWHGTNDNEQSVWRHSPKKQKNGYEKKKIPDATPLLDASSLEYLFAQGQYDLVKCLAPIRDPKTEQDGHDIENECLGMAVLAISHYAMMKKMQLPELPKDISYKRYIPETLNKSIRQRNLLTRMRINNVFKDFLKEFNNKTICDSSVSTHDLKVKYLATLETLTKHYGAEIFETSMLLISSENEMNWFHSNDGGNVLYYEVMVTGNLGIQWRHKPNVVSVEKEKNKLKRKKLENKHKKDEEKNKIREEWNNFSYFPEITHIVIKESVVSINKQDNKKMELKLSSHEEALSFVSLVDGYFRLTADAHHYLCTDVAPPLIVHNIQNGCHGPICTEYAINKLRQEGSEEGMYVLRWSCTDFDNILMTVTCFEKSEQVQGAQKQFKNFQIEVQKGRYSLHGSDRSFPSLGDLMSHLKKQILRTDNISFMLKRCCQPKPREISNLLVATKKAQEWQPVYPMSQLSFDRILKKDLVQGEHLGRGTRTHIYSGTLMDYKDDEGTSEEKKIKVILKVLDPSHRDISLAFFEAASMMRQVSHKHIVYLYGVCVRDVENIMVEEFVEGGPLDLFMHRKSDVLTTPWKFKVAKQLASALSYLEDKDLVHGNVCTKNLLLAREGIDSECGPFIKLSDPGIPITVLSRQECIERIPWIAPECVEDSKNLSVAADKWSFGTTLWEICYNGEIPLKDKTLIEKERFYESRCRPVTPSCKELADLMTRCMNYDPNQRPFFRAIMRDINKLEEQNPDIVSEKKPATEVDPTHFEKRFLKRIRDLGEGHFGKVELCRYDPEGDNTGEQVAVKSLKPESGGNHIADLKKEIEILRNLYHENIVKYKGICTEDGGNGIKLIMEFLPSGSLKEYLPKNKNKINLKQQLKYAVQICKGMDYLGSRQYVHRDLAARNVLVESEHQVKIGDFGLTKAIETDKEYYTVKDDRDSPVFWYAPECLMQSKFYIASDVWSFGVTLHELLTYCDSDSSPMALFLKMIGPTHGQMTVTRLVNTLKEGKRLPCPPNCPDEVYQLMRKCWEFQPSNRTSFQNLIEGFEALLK
Method in brief: as §1

human kinome [25] = target: human kinome (Homo sapiens, UniProt O94921); conditions: read-out: Percent Control
Method in brief: as §1

human kinome [26] = target: human kinome (Homo sapiens, UniProt P42336, I800L); conditions: read-out: Percent Control
Chain of human kinome (Homo sapiens, UniProt P42336, I800L) (P42336 whole entry I800L): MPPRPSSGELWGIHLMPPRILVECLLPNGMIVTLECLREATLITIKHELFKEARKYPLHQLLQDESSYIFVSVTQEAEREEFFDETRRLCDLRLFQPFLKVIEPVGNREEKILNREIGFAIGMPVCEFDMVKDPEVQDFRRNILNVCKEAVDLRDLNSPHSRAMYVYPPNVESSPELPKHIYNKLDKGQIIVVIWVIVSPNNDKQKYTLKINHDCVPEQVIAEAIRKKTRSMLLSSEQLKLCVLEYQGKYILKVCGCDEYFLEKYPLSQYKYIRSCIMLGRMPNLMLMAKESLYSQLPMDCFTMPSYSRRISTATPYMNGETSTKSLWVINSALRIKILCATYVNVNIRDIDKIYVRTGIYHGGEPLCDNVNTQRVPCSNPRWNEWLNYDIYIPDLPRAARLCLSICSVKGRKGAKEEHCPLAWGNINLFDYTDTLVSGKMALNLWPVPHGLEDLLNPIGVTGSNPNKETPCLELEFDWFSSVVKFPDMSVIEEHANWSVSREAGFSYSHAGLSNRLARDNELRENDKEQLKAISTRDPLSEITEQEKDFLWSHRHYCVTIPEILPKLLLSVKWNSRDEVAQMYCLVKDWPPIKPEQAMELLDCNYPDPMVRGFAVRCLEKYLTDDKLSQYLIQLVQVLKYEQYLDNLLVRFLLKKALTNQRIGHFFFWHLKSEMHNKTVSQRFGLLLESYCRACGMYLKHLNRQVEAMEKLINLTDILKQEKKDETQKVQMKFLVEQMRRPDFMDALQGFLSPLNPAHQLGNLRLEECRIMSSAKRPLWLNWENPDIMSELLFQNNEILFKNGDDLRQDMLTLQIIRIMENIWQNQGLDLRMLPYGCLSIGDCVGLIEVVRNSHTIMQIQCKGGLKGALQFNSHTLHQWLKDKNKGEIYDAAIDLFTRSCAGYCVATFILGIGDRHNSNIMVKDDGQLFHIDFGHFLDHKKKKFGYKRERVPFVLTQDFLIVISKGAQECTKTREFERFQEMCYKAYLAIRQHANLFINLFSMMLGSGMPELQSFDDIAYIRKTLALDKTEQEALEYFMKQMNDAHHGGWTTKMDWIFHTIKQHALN
Method in brief: as §1

human kinome [27] = target: human kinome (Homo sapiens, UniProt Q05655); conditions: read-out: Percent Control
Method in brief: as §1

human kinome [28] = target: human kinome (Homo sapiens, UniProt Q9UEE5); conditions: DRAK1 (Entrez STK17A); 100 nM; read-out: Percent Control
Method in brief: as §1

human kinome [29] = target: human kinome (Homo sapiens, UniProt Q99640); conditions: read-out: Percent Control
Chain of human kinome (Homo sapiens, UniProt Q99640) (Q99640 whole entry): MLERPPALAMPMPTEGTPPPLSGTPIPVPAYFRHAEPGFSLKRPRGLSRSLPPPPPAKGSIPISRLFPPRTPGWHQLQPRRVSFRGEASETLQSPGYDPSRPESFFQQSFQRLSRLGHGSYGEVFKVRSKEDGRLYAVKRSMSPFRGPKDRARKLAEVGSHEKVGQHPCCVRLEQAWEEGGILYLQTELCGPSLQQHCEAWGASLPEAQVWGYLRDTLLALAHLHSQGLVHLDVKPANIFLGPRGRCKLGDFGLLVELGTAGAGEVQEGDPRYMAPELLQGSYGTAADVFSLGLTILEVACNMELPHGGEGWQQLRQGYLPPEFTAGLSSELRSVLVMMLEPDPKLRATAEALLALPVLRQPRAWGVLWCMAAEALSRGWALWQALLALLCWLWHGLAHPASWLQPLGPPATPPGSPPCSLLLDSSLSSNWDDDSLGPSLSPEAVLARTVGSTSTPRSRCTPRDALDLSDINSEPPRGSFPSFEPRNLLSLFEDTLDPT
Method in brief: as §1

## COc1cc(F)ccc1-c1cc(Nc2cc(CS(C)(=N)=O)ccn2)ncc1F (stereo not drawn) [VIP152]
Human kinome [1]
  remaining binding at 0.1 µM: 100%
Human kinome [2]
  remaining binding at 0.1 µM: 89%
Human kinome [3]; PCTK1 (Entrez CDK16), 100 nM
  remaining binding at 0.1 µM: 83%
Human kinome [3]; kinase PCTK1 (Entrez CDK16), compound concentration 1000 nM
  remaining binding at 1 µM: 24%
Human kinome [4]
  remaining binding at 1 µM: 95%
Human kinome [5]
  remaining binding at 0.1 µM: 100%
Human kinome [6]
  remaining binding at 0.1 µM: 90%
Human kinome [7]
  remaining binding at 0.1 µM: 100%
Human kinome [8]
  remaining binding at 0.1 µM: 100%
Human kinome [9]; MYO3A, 100 nM
  remaining binding at 0.1 µM: 100%
Human kinome [9]; kinase MYO3A (Entrez MYO3A), compound concentration 1000 nM
  remaining binding at 1 µM: 90%
Human kinome [10]; MYLK2, 100 nM
  remaining binding at 0.1 µM: 100%
Human kinome [10]; kinase MYLK2 (Entrez MYLK2), compound concentration 1000 nM
  remaining binding at 1 µM: 91%
Human kinome [11]
  remaining binding at 0.1 µM: 100%
Human kinome [12]
  remaining binding at 0.1 µM: 100%
Human kinome [13]
  remaining binding at 0.1 µM: 100%
Human kinome [14]
  remaining binding at 0.1 µM: 100%
Human kinome [15]
  remaining binding at 0.1 µM: 95%
Human kinome [16]
  remaining binding at 1 µM: 85%
Human kinome [17]; PRP4 (Entrez PRPF4B), 100 nM
  remaining binding at 0.1 µM: 87%
Human kinome [17]; kinase PRP4 (Entrez PRPF4B), compound concentration 1000 nM
  remaining binding at 1 µM: 71%
Human kinome [18]
  remaining binding at 0.1 µM: 100%
Human kinome [19]; NEK6, 100 nM
  remaining binding at 0.1 µM: 100%
Human kinome [19]; kinase NEK6 (Entrez NEK6), compound concentration 1000 nM
  remaining binding at 1 µM: 93%
Human kinome [20]
  remaining binding at 1 µM: 86%
Human kinome [21]
  remaining binding at 0.1 µM: 100%
Human kinome [22]
  remaining binding at 0.1 µM: 100%
Human kinome [23]
  remaining binding at 0.1 µM: 100%
Human kinome [24]; JAK1(JH1domain-catalytic)
  remaining binding at 0.1 µM: 87%
Human kinome [24]; JAK1(JH2domain-pseudokinase)
  remaining binding at 0.1 µM: 100%
Human kinome [25]; PFTK1 (Entrez CDK14), 100 nM
  remaining binding at 0.1 µM: 100%
Human kinome [25]; kinase PFTK1 (Entrez CDK14), compound concentration 1000 nM
  remaining binding at 1 µM: 84%
Human kinome [26]; PIK3CA(I800L), 100 nM
  remaining binding at 0.1 µM: 100%
Human kinome [26]; kinase PIK3CA(I800L) (Entrez PIK3CA), compound concentration 1000 nM
  remaining binding at 1 µM: 98%
Human kinome [27]; PRKCD, 100 nM
  remaining binding at 0.1 µM: 100%
Human kinome [27]; kinase PRKCD (Entrez PRKCD), compound concentration 1000 nM
  remaining binding at 1 µM: 83%
Human kinome [28]
  remaining binding at 0.1 µM: 100%
Human kinome [29]; PKMYT1, 100 nM
  remaining binding at 0.1 µM: 100%
Human kinome [29]; kinase PKMYT1 (Entrez PKMYT1), compound concentration 1000 nM
  remaining binding at 1 µM: 45%
